Test results reported in patent US20140023611A1 (priority 2010, published 2014).

Tests used:
[1] = system: Uptake of Phosphorus from the Intestine; experiment: In vivo co-dosing in chow (urine P out / P consumed); settings: Rattus norvegicus, feed or water; rats, compound in chow; mean drug dose 101 mg/kg/day; read-out: Mean % inhibition Urine Pout/P consumed
Description: Male, 7-week-old Sprague-Dawley rats (Charles-River laboratories international, Hollister, Calif.) were allowed to acclimate for a minimum of 3 days. The experiment was initiated by switching animals to a synthetic diet (0.6% phosphorus and 0.6% calcium, Harlan Teklad TD.84122) for four days. After this time, the animals were placed into metabolic cages for daily monitoring of food and water consumption, as well as urine and fecal collections. Test compounds were incorporated into the powdered diet listed above containing 3% chocolate flavoring (w/w, BioServ #7345) at 1.3 mg test compound per gram of diet to achieve an average daily nominal dose of 100 mg/kg/day. The actual dose received by each animal was later determined by measuring prepared diet consumption and body weight. Urine samples were collected in three daily periods from 24-48, 48-72, and 72-96 hours of drug dosing. Averaging these three 24 h periods allows for the more representative measurements of urination, fecal excretion, food consumption and water uptake for each animal. Phosphorus levels in the urine were determined by anion exchange chromatography using a Dionex ICS-3000 ion chromatography system. Urine samples were diluted 1:500 or 1:1000 and injected onto an IonPac AS18 analytical column (2×250 mm) using a potassium hydroxide eluent. Elution of urine phosphate ions was monitored via conductivity detector and reported as ppm relative to a standard ion solution containing phosphate. Daily urinary P output relative to the P consumed in the prepared diet for each animal was calculated. The percentage inhibition of phosphorus absorption was estimated by determining the reduction of this ratio compared to the control group (animals with no drug in chow). The differences between the means of control and treated groups were evaluated by t tests. In all experiments, one group was always included that had Renvela powder blended into their chow at 0.9% targeting a dose of 750 mg/kg.

[2] = system: NaPi2b; experiment: Competition with phosphate: Pi uptake assay repeated at 2.1 vs 0.1 mM phosphate; format: cell-based; settings: potency at 2.1 vs 0.1 mM phosphate
Description: For example, a phosphate uptake assay can be performed and the IC50 values for a compound at different phosphate concentrations can be determined (e.g., “Enzyme kinetics”, I. Segel, 1975, John-Wiley & Sons, p. 123). IC50 values for non-competitive inhibitors will remain the same or similar with respect to the phosphate concentration, whereas IC50 values for competitive inhibitors will increase (i.e lose potency) as phosphate concentration increases.
To ascertain if an inhibitor was competitive for binding with phosphate, the procedure was repeated, but raising the concentration of the substrate in the assay mixture from 0.1 to 2.1 mM phosphate.

[3] = Stability of compounds in simulated intestinal fluid (SIF); format: in vitro ADME; settings: simulated intestinal fluid (3 mg/mL pancreatin), incubation time 6 hr, relative to t=0
Procedure, shortened: (§1)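 Compounds at […] were incubated 3 or 6 hr in USP simulated gastric fluid with 3 mg/mL pepsin or simulated intestinal fluid with 3 mg/mL pancreatin. Remaining compound was quantified by HPLC-UV or HPLC-MS peak area % and reported as percent of the t=0 level in the same medium.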

[4] = Stability of compounds in simulated gastric fluid (SGF); format: in vitro ADME; settings: simulated gastric fluid (3 mg/mL pepsin), incubation time 6 hr, relative to t=0
Procedure, shortened: as §1

[5] = Fecal recovery of orally administered compounds; format: in vivo, Sprague-Dawley rats; settings: Structure (I) examples, Table 16; rat, oral gavage, feces collected until 48 hr after dosing
Description: (§2) The animals were kept in metabolic cages and feces were collected from the time of dosing until 48 hr after dosing. Upon collection, feces were dried by lyophilization and ground to a visually homogenous powder. Duplicate samples of ground feces from each individual animal were weighed out and extracted using organic solvent. […] Extraction conditions were not optimized for individual compounds, and thus may represent a minimal level of recovery.
as §2, with “collection, feces was dried by” for “collection, feces were dried by”
as §2, with “collection, feces was dried by” for “collection, feces were dried by”
The animals were kept in metabolic cages and feces were collected from the time of dosing until 48 hr after dosing. Upon collection, feces was dried by lyophilization and ground to a visually homogenous powder. Duplicate samples of ground feces from each individual animal were weighed out and extracted using organic solvent.

[6] = Determination of compound Cmax and AUC after oral gavage (plasma LC-MS/MS); format: in vivo, Sprague-Dawley rats; settings: Sprague-Dawley, Structure (I) examples, Table 15, rat, actual oral dose 3-15 mg/kg, plasma 0.5-4 h
Procedure, shortened: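 Sprague-Dawley rats dosed by oral gavage at nominal 2.5 or 10 mg/kg; blood drawn at 0.5, 1, 2 and 4 h into K2EDTA. Plasma protein-precipitated with acetonitrile plus internal standard and analysed by LC-MS/MS against a plasma standard curve to derive Cmax and AUC.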

Compound: CN(CCN1CCOCC1)C(=O)c1cccc(C(=O)Nc2ccc(N3CCCCC3)cc2-c2cc(C(=O)N[C@H]3CCCc4ccccc43)ccn2)c1.Cl [Example 37, (S)—N1-Methyl-N1-(2-morpholinoethyl)-N3-(4-(piperidin-1-yl)-2-(4-((1,2,3,4-tetrahydronaphthalen-1-yl)carbamoyl)pyridin-2-yl)phenyl)isophthalamide]
- inhibition in vivo at 101 mg/kg/day [1]: ≤ 10%
- Competitive with respect to Pi? [2]: No
- % remaining, SIF [3]: >80%
- % remaining, SGF [4]: >80%
- % recovered in feces [5]: <20%
- AUC [6]: < 30 ng·h/mL
- Cmax [6]: < 10 ng/mL
